Test [1] deals with T1, PRMT5 (Homo sapiens, UniProt O14744).
T1 construct: purchased Viva (custom protein)
Kind of test: PRMT5 biochemical IC50 assay with SAM as cofactor. Conditions: PRMT5, SAM as cofactor; read-out: SAM IC50.

In test [2] the target is T1, PRMT5. Kind of test: PRMT5 biochemical IC50 assay with no cofactor. Particulars: PRMT5, no cofactor; read-out: No Cofactor/rel IC50. The text has this: Table 1 indicates IC50 values (μM) against PRMT5 for exemplary compounds in the presence of SAM as cofactor, with no cofactor, and with MTA as cofactor, respectively (columns 4-6). […] Ki values can be calculated from the IC50 values as described in the Examples section. As detailed in the Examples section, for the assay performed in the presence of SAM, IC50=Ki×1.5 (Ki=IC50/1.5).

In test [3] the target is T1, PRMT5. Kind of test: PRMT5 biochemical IC50 assay with MTA as cofactor. Conditions: PRMT5, MTA as cofactor; read-out: MTA IC50.
In test [4] the test system is HAP1 MTAP-intact cell line. Kind of test: SDMA in-cell western assay, HAP1 MTAP-intact. Particulars: Homo sapiens, HAP1, SDMA in-cell western, HAP1 MTAP-intact; read-out: MTAP HAP1 intact IC50. The format is cell-based. In short, it runs like this: (§1)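 Compounds were tested in HAP1 cells differing only in MTAP status (endogenous expression versus null). Cellular SDMA levels were then measured by in-cell western, giving an IC50 in each background.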

Test [5] concerns HAP1 MTAP-deleted cell line. Kind of test: SDMA in-cell western assay, HAP1 MTAP-deleted. It counts as cell-based. Particulars: for IC50: Homo sapiens, HAP1, SDMA in-cell western, HAP1 MTAP-deleted, read-out: HAP1 MTAP deleted IC50; for MTAP intact/deleted ratio: IC50 ratio HAP1 MTAP-intact / HAP1 MTAP-deleted, SDMA in-cell western. In a few lines:
as §1

Test [6] has as its system HAP1 MTAP-deleted cell line. Put plainly: Viability assay, MTAP-deleted cell line. Particulars: Homo sapiens, HAP1, viability assay, MTAP-deleted cell line; read-out: HAP1 MTAP deleted viability. The format is cell-based. The source says: Table 1 additionally indicates IC50 values in a viability assay for the MTAP-deleted cell line (column 10), indicating the effect of treatment with compound on cell survival.

A value given as a limit tells only on which side of the number the result lay.

T1 sequence (O14744 whole entry): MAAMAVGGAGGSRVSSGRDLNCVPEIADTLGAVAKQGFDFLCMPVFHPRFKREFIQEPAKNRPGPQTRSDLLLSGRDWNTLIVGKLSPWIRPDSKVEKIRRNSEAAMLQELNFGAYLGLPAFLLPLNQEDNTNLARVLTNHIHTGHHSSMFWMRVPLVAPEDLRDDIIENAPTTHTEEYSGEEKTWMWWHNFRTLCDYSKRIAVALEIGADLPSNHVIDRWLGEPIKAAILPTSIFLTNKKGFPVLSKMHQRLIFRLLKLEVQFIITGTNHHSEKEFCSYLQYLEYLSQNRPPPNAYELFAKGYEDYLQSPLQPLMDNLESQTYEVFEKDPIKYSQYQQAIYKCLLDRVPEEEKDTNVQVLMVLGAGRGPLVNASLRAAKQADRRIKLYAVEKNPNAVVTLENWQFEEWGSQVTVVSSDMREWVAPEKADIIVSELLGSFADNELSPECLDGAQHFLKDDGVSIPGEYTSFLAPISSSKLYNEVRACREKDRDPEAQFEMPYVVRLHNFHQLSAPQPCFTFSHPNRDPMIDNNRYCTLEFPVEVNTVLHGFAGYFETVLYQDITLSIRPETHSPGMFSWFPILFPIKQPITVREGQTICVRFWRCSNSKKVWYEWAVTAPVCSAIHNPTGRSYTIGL
T1 sequence (Q9BQA1 whole entry partner): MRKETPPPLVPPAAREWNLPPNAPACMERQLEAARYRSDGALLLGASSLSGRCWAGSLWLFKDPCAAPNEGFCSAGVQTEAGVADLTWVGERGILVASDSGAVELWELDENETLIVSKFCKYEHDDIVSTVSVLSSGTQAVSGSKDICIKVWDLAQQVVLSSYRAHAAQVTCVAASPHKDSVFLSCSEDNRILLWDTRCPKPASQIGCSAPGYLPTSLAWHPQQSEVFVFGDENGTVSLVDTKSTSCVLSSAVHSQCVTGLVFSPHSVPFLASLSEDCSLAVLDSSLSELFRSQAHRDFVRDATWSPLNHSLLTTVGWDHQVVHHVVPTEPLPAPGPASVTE

Turning to `COc1ncc(NC(=O)C(=O)N2C[C@@H](C)CC[C@@H]2c2ccc3[nH]ncc3c2)cc1C(N)=O` (single isomer, unassigned) [Compound 464], the IC50 was 50 to 500 nM at PRMT5 [1]; under 50 nM at PRMT5 [2]; under 50 nM on PRMT5 [3]; 100 to 1000 nM in test [4]; under 100 nM in test [5]; under 1000 nM in test [6]. In addition, the MTAP intact/deleted ratio result in test [5] was “A (an IC50 ratio greater than or equal to 10 fold)”.
For the molecule `COc1ncc(NC(=O)C(=O)N2C[C@H](C)CC[C@H]2c2ccc3[nH]ncc3c2)cc1C(N)=O` (single isomer, unassigned) [Compound 465], the IC50 on PRMT5 [1] was over 500 nM; at PRMT5 [2], over 500 nM; on PRMT5 [3], over 500 nM; in test [4] it was over 1000 nM; in test [5], over 1000 nM; in test [6], over 10000 nM. Further, the MTAP intact/deleted ratio result in test [5] is listed as “B (an IC50 ratio greater than or equal to 3 fold but lower than 10 fold)”.
On to `C[C@H]1CC[C@H](c2csc3ccccc23)N(C(=O)C(=O)Nc2cncc(C(N)=O)c2)C1` (single isomer, unassigned) [Compound 466], for which the IC50 at PRMT5 [1] was over 500 nM; at PRMT5 [2], over 500 nM; on PRMT5 [3], over 500 nM; in test [4] it was over 1000 nM; in test [5], over 1000 nM; in test [6] it was over 10000 nM. The MTAP intact/deleted ratio entry in test [5] is on record as “C (an IC50 ratio of less than 3 fold)”.
As for `CNc1ccc([C@H]2CC[C@@H](C)CN2C(=O)C(=O)Nc2cnc(OC)c(C(N)=O)c2)cn1` (single isomer, unassigned) [Compound 467], the IC50 is over 500 nM at PRMT5 [1]; over 500 nM on PRMT5 [2]; over 500 nM on PRMT5 [3]; over 1000 nM in test [4]; over 10000 nM in test [6]. Also, the MTAP intact/deleted ratio result in test [5] is “C (an IC50 ratio of less than 3 fold)”.
As to `CNc1ccc([C@@H]2CC[C@H](C)CN2C(=O)C(=O)Nc2cnc(OC)c(C(N)=O)c2)cn1` (single isomer, unassigned) [Compound 468], the IC50 on PRMT5 [1] is over 500 nM; at PRMT5 [2] it was over 500 nM; at PRMT5 [3], over 500 nM; in test [4], over 1000 nM; in test [5], over 1000 nM; in test [6] it was over 10000 nM. Also, the MTAP intact/deleted ratio entry in test [5] was “C (an IC50 ratio of less than 3 fold)”.
As to `C[C@@H]1CC[C@@H](c2ccc(NS(C)(=O)=O)cc2)N(C(=O)C(=O)Nc2cncc(C(N)=O)c2)C1` (single isomer, unassigned) [Compound 469], the IC50 on PRMT5 [1] is over 500 nM; on PRMT5 [2] it was over 500 nM; on PRMT5 [3] it was over 500 nM; in test [4], over 1000 nM; in test [5], over 1000 nM; in test [6], over 10000 nM. The MTAP intact/deleted ratio result in test [5] is “C (an IC50 ratio of less than 3 fold)”.
For `COc1ncc(NC(=O)C(=O)N2C[C@H](C)CC[C@H]2c2ccc(N)nc2)cc1C(N)=O` (single isomer, unassigned) [Compound 471], the IC50 is over 500 nM on PRMT5 [1]; over 500 nM on PRMT5 [2]; over 500 nM on PRMT5 [3]; over 1000 nM in test [4]; over 1000 nM in test [5]; over 10000 nM in test [6]. Also, in test [5], the MTAP intact/deleted ratio result is reported as “C (an IC50 ratio of less than 3 fold)”.
As to `Cc1cc(NC(=O)C(=O)N2C[C@@H](C)CC[C@@H]2c2ccc(F)c(F)c2)cnc1N` (single isomer, unassigned) [Compound 472], the IC50 at PRMT5 [1] was over 500 nM; on PRMT5 [2], over 500 nM; at PRMT5 [3], over 500 nM; in test [4], over 1000 nM; in test [5] it was over 1000 nM; in test [6], over 10000 nM. Besides, in test [5], the MTAP intact/deleted ratio result is listed as “C (an IC50 ratio of less than 3 fold)”.
`C[C@@H]1CN(C(=O)C(=O)Nc2cncc(C(N)=O)c2)[C@@H](c2ccccc2)CC1(F)F` (single isomer, unassigned) [Compound 473]: the IC50 on PRMT5 [1] is over 500 nM; on PRMT5 [2] it was over 500 nM; on PRMT5 [3], over 500 nM; in test [4] it was over 1000 nM; in test [5] it was over 1000 nM; in test [6], over 10000 nM. Moreover, the MTAP intact/deleted ratio result in test [5] is “C (an IC50 ratio of less than 3 fold)”.
As for `C[C@@H]1CC[C@@H](c2ccc(F)c(F)c2)N(C(=O)C(=O)Nc2cncc(C(N)=O)c2)C1` (single isomer, unassigned) [Compound 474], the IC50 at PRMT5 [1] is over 500 nM; on PRMT5 [2], over 500 nM; on PRMT5 [3], over 500 nM; in test [4], over 1000 nM; in test [5], over 1000 nM; in test [6] it was over 10000 nM. Also, in test [5], the MTAP intact/deleted ratio entry is “C (an IC50 ratio of less than 3 fold)”.
Consider `C[C@H]1CC[C@H](c2ccc(F)c(F)c2)N(C(=O)C(=O)Nc2cncc(C(N)=O)c2)C1` (single isomer, unassigned) [Compound 475], for which the IC50 is 50 to 500 nM on PRMT5 [1]; 50 to 500 nM on PRMT5 [2]; under 50 nM on PRMT5 [3]; over 1000 nM in test [4]; 100 to 1000 nM in test [5]; 1000 to 10000 nM in test [6]. Further, the MTAP intact/deleted ratio result in test [5] is listed as “A (an IC50 ratio greater than or equal to 10 fold)”.
Turning to `C[C@@H]1CC[C@@H](c2cc(F)c(F)c(F)c2)N(C(=O)C(=O)Nc2cncc(C(N)=O)c2)C1` (single isomer, unassigned) [Compound 476], the IC50 was over 500 nM at PRMT5 [1]; over 500 nM at PRMT5 [2]; over 500 nM at PRMT5 [3]; over 1000 nM in test [4]; over 1000 nM in test [5]; over 10000 nM in test [6]. Besides, the MTAP intact/deleted ratio entry in test [5] is given as “C (an IC50 ratio of less than 3 fold)”.
Take `C[C@H]1CC[C@H](c2cc(F)c(F)c(F)c2)N(C(=O)C(=O)Nc2cncc(C(N)=O)c2)C1` (single isomer, unassigned) [Compound 477]: the IC50 at PRMT5 [1] is 50 to 500 nM; at PRMT5 [2], 50 to 500 nM; on PRMT5 [3], under 50 nM; in test [4] it was over 1000 nM; in test [5] it was under 100 nM; in test [6], 1000 to 10000 nM. For the same molecule, in test [5], the MTAP intact/deleted ratio result is listed as “A (an IC50 ratio greater than or equal to 10 fold)”.
On to `Cc1cc(NC(=O)C(=O)N2C[C@H](C)CC[C@H]2c2cc(F)c(F)c(F)c2)cnc1N` (single isomer, unassigned) [Compound 478], for which the IC50 was 50 to 500 nM on PRMT5 [1]; 50 to 500 nM at PRMT5 [2]; under 50 nM on PRMT5 [3]; over 1000 nM in test [4]; 100 to 1000 nM in test [5]; 1000 to 10000 nM in test [6]. Further, the MTAP intact/deleted ratio result in test [5] is on record as “A (an IC50 ratio greater than or equal to 10 fold)”.
Regarding `C[C@@H]1CC[C@@H](c2ccccc2)N(C(=O)C(=O)Nc2cncc(C(N)=O)c2)[C@H]1C` (single isomer, unassigned) [Compound 482], the IC50 was 50 to 500 nM at PRMT5 [1]; 50 to 500 nM at PRMT5 [2]; under 50 nM on PRMT5 [3]; over 1000 nM in test [4]; under 100 nM in test [5]; under 1000 nM in test [6]. For the same molecule, the MTAP intact/deleted ratio entry in test [5] is recorded as “A (an IC50 ratio greater than or equal to 10 fold)”.
On to `C[C@@H]1[C@@H](C)CC[C@H](c2ccccc2)N1C(=O)C(=O)Nc1cncc(C(N)=O)c1` (single isomer, unassigned) [Compound 483], for which the IC50 is over 500 nM at PRMT5 [1]; over 500 nM on PRMT5 [2]; over 500 nM at PRMT5 [3]; over 1000 nM in test [4]; over 1000 nM in test [5]; over 10000 nM in test [6]. Also, in test [5], the MTAP intact/deleted ratio result is reported as “C (an IC50 ratio of less than 3 fold)”.
For `Cc1ccc([C@H]2CC[C@H](C)CN2C(=O)C(=O)Nc2cncc(C(N)=O)c2)cc1Cl` (single isomer, unassigned) [Compound 484], the IC50 was 50 to 500 nM on PRMT5 [1]; 50 to 500 nM on PRMT5 [2]; under 50 nM at PRMT5 [3]; over 1000 nM in test [4]; under 100 nM in test [5]; 1000 to 10000 nM in test [6]. Further, the MTAP intact/deleted ratio result in test [5] was “A (an IC50 ratio greater than or equal to 10 fold)”.
For the molecule `Cc1ccc([C@@H]2CC[C@@H](C)CN2C(=O)C(=O)Nc2cncc(C(N)=O)c2)cc1Cl` (single isomer, unassigned) [Compound 485], the IC50 is over 500 nM on PRMT5 [1]; over 500 nM at PRMT5 [2]; over 500 nM on PRMT5 [3]; over 1000 nM in test [4]; over 1000 nM in test [5]; over 10000 nM in test [6]. In addition, the MTAP intact/deleted ratio result in test [5] is reported as “C (an IC50 ratio of less than 3 fold)”.
As for `C[C@@H]1CC[C@@H](C2CCC(F)(F)CC2)N(C(=O)C(=O)Nc2cncc(C(N)=O)c2)C1` (single isomer, unassigned) [Compound 486], the IC50 at PRMT5 [1] was over 500 nM; at PRMT5 [2], over 500 nM; on PRMT5 [3], over 500 nM; in test [4], over 1000 nM; in test [5], over 1000 nM; in test [6], over 10000 nM. Further, in test [5], the MTAP intact/deleted ratio entry is given as “C (an IC50 ratio of less than 3 fold)”.
